The text below walks through data of PubChem BioAssay AID248 (DTP/NCI, 2004).

Several values for one entry are separate records, joined by “and”; a condition that tells them apart may be missing. Equal values may be shown once. Inconclusive results and toxic doses are left out.

The experiment relates to L1210 leukemia ip in BDF1 mice, survival T/C. Kind of experiment: NCI In Vivo Anticancer Drug Screen. Data for tumor model L1210 Leukemia (intraperitoneal) in B6D2F1 (BDF1) mice. The settings on record: endpoint: mean survival time, higher = longer survival. Summed up: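 Mice bearing the transplanted tumor received compound or vehicle. Survival of the treated group was divided by that of the vehicle-treated control group to give the ratio.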

Setting [1] is: dose: 100.0 mg/kg/injection, schedule: Q01DX001 (ip), vehicle: saline.
[2] abbreviates: dose: 200.0 mg/kg/injection, schedule: Q01DX001 (ip), vehicle: saline.
Setting [3] is: dose: 100.0 mg/kg/injection, schedule: Q01DX009 (ip), vehicle: Klucel (hydroxypropylcellulose) (HPC).
The mark [4] stands for this setting: dose: 100.0 mg/kg/injection, schedule: Q04DX003 (ip), vehicle: Klucel (hydroxypropylcellulose) (HPC).
[5] abbreviates: dose: 200.0 mg/kg/injection, schedule: Q01DX009 (ip), vehicle: Klucel (hydroxypropylcellulose) (HPC).
[6] abbreviates: dose: 200.0 mg/kg/injection, schedule: Q04DX003 (ip), vehicle: Klucel (hydroxypropylcellulose) (HPC).
The mark [7] stands for this setting: dose: 400.0 mg/kg/injection, schedule: Q04DX003 (ip), vehicle: Klucel (hydroxypropylcellulose) (HPC).
Setting [8] is: dose: 100.0 mg/kg/injection, schedule: Q01DX009 (ip), vehicle: saline with Tween-80.
[9] abbreviates: dose: 100.0 mg/kg/injection, schedule: Q04DX003 (ip), vehicle: saline with Tween-80.
Setting [10] is: dose: 200.0 mg/kg/injection, schedule: Q01DX009 (ip), vehicle: saline with Tween-80.
Setting [11] is: dose: 200.0 mg/kg/injection, schedule: Q04DX003 (ip), vehicle: saline with Tween-80.
[12] abbreviates: dose: 400.0 mg/kg/injection, schedule: Q01DX009 (ip), vehicle: saline with Tween-80.
The mark [13] stands for this setting: dose: 400.0 mg/kg/injection, schedule: Q04DX003 (ip), vehicle: saline with Tween-80.
Where [14] appears, read: dose: 50.0 mg/kg/injection, schedule: Q01DX009 (ip), vehicle: saline with Tween-80.

As to `NCCCc1c(-c2ccccc2)nc(N)[nH]c1=O`, the T/C is 108 % of control (dose: 50.0 mg/kg/injection, schedule: Q01DX001 (ip), vehicle: saline); 110 % of control under setting [1]; 98 % of control under setting [2].
In the case of `CCOC(=O)C(C(=O)OCC)C1C=CCC1` (configuration not stated), the T/C reads like this: under setting [3], 104 % of control; under setting [4], 98 % of control; under setting [5], 96 % of control; under setting [6], 97 % of control; (dose: 400.0 mg/kg/injection, schedule: Q01DX009 (ip), vehicle: Klucel (hydroxypropylcellulose) (HPC)) 91 % of control; under setting [7], 108 % of control.
For `C/C=C/C=N/NC(=O)c1ccc(OC)cc1`, the T/C under setting [3] is 102 % of control and the T/C under setting [5] was 86 % of control.
Take `S=C(NCc1ccco1)Nc1cccc2ccccc12`: the T/C (dose: 100.0 mg/kg/injection, schedule: Q04DX002 (ip), vehicle: gum acacia) was 101 % of control; the T/C (dose: 200.0 mg/kg/injection, schedule: Q04DX002 (ip), vehicle: gum acacia) is 88 % of control; the T/C (dose: 400.0 mg/kg/injection, schedule: Q04DX002 (ip), vehicle: gum acacia) was 98 % of control.
Take `O=C1NC(=O)C(c2ccc(C(F)(F)F)cc2)(c2ccc(C(F)(F)F)cc2)N1`: the T/C reads like this: under setting [8], 98 % of control; under setting [9], 92 % of control; under setting [10], 90 % of control; under setting [11], 96 % of control; under setting [12], 86 % of control; under setting [13], 89 % of control.
Turning to `CN(C)c1ccc(/C=N/NC(=O)C(O)(c2ccccc2)c2ccccc2)cc1`, the T/C was 98 % of control under setting [8], 98 % of control under setting [10] and 88 % of control under setting [12].
On to `COc1cc2c(cc1O)C(OC)(OC)CCCC2`, for which the T/C reads like this: under setting [14], 96 % of control; under setting [8], 96 % of control; under setting [10], 93 % of control.
For `CC(C)=NC(=O)NO.[Cl][Ni][Cl]`, the T/C reads like this: (dose: 15.0 mg/kg/injection, schedule: Q01DX001 (ip), vehicle: saline) 102 % of control; (dose: 30.0 mg/kg/injection, schedule: Q01DX001 (ip), vehicle: saline) 110 % of control; (dose: 60.0 mg/kg/injection, schedule: Q01DX001 (ip), vehicle: saline) 111 % of control; (dose: 75.0 mg/kg/injection, schedule: Q01DX001 (ip), vehicle: saline) 116 % of control.
`Cc1c([N+](=O)[O-])cc(C(C)(C)C)c(OC(=O)Nc2ccc(Cl)cc2)c1[N+](=O)[O-]`: the T/C runs as follows: under setting [4], 95 % of control; under setting [6], 92 % of control.
On to `CCCCC1CCCCC1`, for which the T/C is 106 % of control under setting [8], 98 % of control under setting [10] and 96 % of control under setting [12].
In the case of `COc1ccccc1C(=Nc1ccccc1)N(O)c1ccccc1`, the T/C (dose: 2.5 mg/kg/injection, schedule: Q01DX009 (ip), vehicle: saline with Tween-80) was 93 % of control and the T/C (dose: 5.0 mg/kg/injection, schedule: Q01DX009 (ip), vehicle: saline with Tween-80) is 103 % of control.
Take `S=C(N/N=C/c1ccc(-c2ccccc2)cc1)Nc1ccccc1`: the T/C is 86 % of control under setting [8]; 97 % of control under setting [9]; 88 % of control under setting [10]; 100 % of control under setting [11]; 94 % of control under setting [13].
On to `O=C(CC(=Nc1ccccc1)c1ccccc1)c1ccccc1.O=C(CC(=Nc1ccccc1)c1ccccc1)c1ccccc1.[Cu]`, for which the T/C is 89 % of control (dose: 50.0 mg/kg/injection, schedule: Q04DX003 (ip), vehicle: saline with Tween-80) and 90 % of control under setting [9].
In the case of `CCCCCCCCCCCc1cc(=O)n(-c2cc(Cl)ccc2Cl)n1C`, the T/C under setting [9] was 98 % of control.
Turning to `C1Cc2c3c4c(c5c2C(C1)CCC5)CCCC4CCC3`, the T/C was 97 % of control under setting [1]; 94 % of control under setting [2]; 91 % of control (dose: 400.0 mg/kg/injection, schedule: Q01DX001 (ip), vehicle: saline).
Turning to `CCCCCCCCCSCC`, the T/C by setting is: under setting [9], 102 % of control; under setting [11], 96 % of control; under setting [13], 102 % of control.
Regarding `O=C(CS(=O)(=O)Cc1ccccc1)c1ccccc1`, the T/C was 98 % of control under setting [4], 98 % of control under setting [6] and 101 % of control under setting [7].
Regarding `O=C(NNCc1ccccc1)c1ccccn1`, the T/C reads like this: (dose: 12.5 mg/kg/injection, schedule: Q01DX009 (ip), vehicle: Klucel (hydroxypropylcellulose) (HPC)) 102 % of control; (dose: 25.0 mg/kg/injection, schedule: Q01DX009 (ip), vehicle: Klucel (hydroxypropylcellulose) (HPC)) 94 % of control; (dose: 50.0 mg/kg/injection, schedule: Q01DX009 (ip), vehicle: Klucel (hydroxypropylcellulose) (HPC)) 97 % of control; under setting [3], 94 % of control.
For `Oc1ccccc1C=Nc1ccccc1O.[Cu+2]`, the T/C is 107 % of control (dose: 100.0 mg/kg/injection, schedule: Q01DX001 (ip), vehicle: other) and 116 % of control (dose: 200.0 mg/kg/injection, schedule: Q01DX001 (ip), vehicle: other).
With `Cc1nccn1-c1ccc(Cl)cc1N=Cc1ccc(N(CCCl)CCCl)cc1`, the T/C (dose: 100.0 mg/kg/injection, schedule: Q04DX002 (ip), vehicle: Klucel (hydroxypropylcellulose) (HPC)) was 98 % of control; the T/C (dose: 200.0 mg/kg/injection, schedule: Q04DX002 (ip), vehicle: Klucel (hydroxypropylcellulose) (HPC)) is 102 % of control; the T/C (dose: 400.0 mg/kg/injection, schedule: Q04DX002 (ip), vehicle: Klucel (hydroxypropylcellulose) (HPC)) was 102 % of control.
For `O=C1C(NCCO)=C(N2CC2)C(=O)C(NCCO)=C1N1CC1`, the T/C was 115 % of control (dose: 0.04 mg/kg/injection, schedule: Q01DX009 (ip), vehicle: saline); 111 % of control (dose: 0.09 mg/kg/injection, schedule: Q01DX009 (ip), vehicle: saline); 121 % of control (dose: 0.09 mg/kg/injection, schedule: Q04DX003 (ip), vehicle: saline); 159 % of control and 164 % of control and 195 % of control (dose: 0.18 mg/kg/injection, schedule: Q01DX009 (ip), vehicle: saline); 120 % of control (dose: 0.18 mg/kg/injection, schedule: Q04DX003 (ip), vehicle: saline); 153 % of control (dose: 0.19 mg/kg/injection, schedule: Q01DX009 (ip), vehicle: saline). Besides, the T/C is 103 % of control (dose: 0.37 mg/kg/injection, schedule: Q01DX001 (ip), vehicle: saline); 157 % of control and 164 % of control and 212 % of control (dose: 0.37 mg/kg/injection, schedule: Q01DX009 (ip), vehicle: saline); 155 % of control and 157 % of control (dose: 0.37 mg/kg/injection, schedule: Q04DX003 (ip), vehicle: saline); 184 % of control (dose: 0.38 mg/kg/injection, schedule: Q01DX009 (ip), vehicle: saline); 170 % of control and 231 % of control (dose: 0.75 mg/kg/injection, schedule: Q04DX003 (ip), vehicle: saline); 275 % of control (dose: 1.5 mg/kg/injection, schedule: Q01DX001 (ip), vehicle: saline). The T/C runs as follows: (dose: 1.5 mg/kg/injection, schedule: Q04DX003 (ip), vehicle: saline) 160 % of control and 164 % of control and 186 % of control; (dose: 1.56 mg/kg/injection, schedule: Q04DX003 (ip), vehicle: saline) 103 % of control; (dose: 3.0 mg/kg/injection, schedule: Q04DX003 (ip), vehicle: saline) 104 % of control and 115 % of control.
Consider `O=C(O)c1cccc([N+](=O)[O-])c1C(=O)c1ccccc1`, for which the T/C under setting [9] is 95 % of control, the T/C under setting [11] was 97 % of control and the T/C under setting [13] is 93 % of control.
With `O=C(O)c1c(I)c(I)c(I)c(I)c1C(=O)c1ccccc1`, the T/C by setting is: under setting [14], 103 % of control; under setting [8], 115 % of control; under setting [10], 112 % of control.
For the molecule `O=C1N(c2ccccc2)C(c2ccccc2)SC1(Cc1ccc(Br)cc1)c1ccccc1` (configuration not stated), the T/C (dose: 100.0 mg/kg/injection, schedule: Q01DX001 (ip), vehicle: saline with Tween-80) is 100 % of control; the T/C (dose: 200.0 mg/kg/injection, schedule: Q01DX001 (ip), vehicle: saline with Tween-80) is 98 % of control; the T/C (dose: 400.0 mg/kg/injection, schedule: Q01DX001 (ip), vehicle: saline with Tween-80) was 94 % of control.
